≈ marks a conversion by molar mass, not a printed value. Non-standard residues stand in square brackets, D forms with d. Residues, ends and D or L forms follow the SMILES beside them. Ac6c = NC1(C(=O)O)CCCCC1
Columns and labels:
[1] = test system: Enterococcus faecium; experiment: Potency index, ratio of Ac-GF-Tic-Oic-GK-Tic-Oic-GF-Tic-Oic-GK-Tic-KKKK-CONH2 MIC to compound MIC for Enterococcus faecium; type: functional
[2] = test system: Klebsiella aerogenes; experiment: Antibacterial activity against carbapenem-resistant Enterobacter aerogenes NCDC819-56 ATCC 13048 by two fold serial dilution method; type: functional
[3] = test system: Acinetobacter baumannii; experiment: Antibacterial activity against Acinetobacter baumannii B5W71 ATCC 15149 by two fold serial dilution method; type: functional
[4] = Antibacterial activity against Salmonella enterica LT2 Typhimurium ATCC 15277 by two fold serial dilution method; type: functional
[5] = test system: Pseudomonas aeruginosa; experiment: Antibacterial activity against Pseudomonas aeruginosa Boston 41501 ATCC 27853 by two fold serial dilution method; type: functional
[6] = Antibacterial activity against carbapenem-resistant Klebsiella pneumoniae K6 ATCC 700603 by two fold serial dilution method; type: functional, Klebsiella pneumoniae 700603
[7] = test system: Enterococcus faecalis; experiment: Antibacterial activity against Enterococcus faecalis Portland ATCC 29212 by two fold serial dilution method; type: functional; conditions: ATCC 29212 Portland
[8] = test system: Staphylococcus aureus; experiment: Antibacterial activity against methicillin-resistant Staphylococcus aureus USA 300 NRS 384 by two fold serial dilution method; type: functional
[9] = Antibacterial activity against Clostridium difficile VIP 10463 ATCC 43255 by two fold serial dilution method; type: functional, Clostridium difficile ATCC 43255; conditions: Clostridioides difficile
[10] = test system: Staphylococcus aureus; experiment: Antibacterial activity against Staphylococcus aureus Seattle 1945 ATCC 25923 by two fold serial dilution method; type: functional
[11] = test system: Streptococcus pneumoniae; experiment: Antibacterial activity against Streptococcus pneumoniae 262 ATCC 49619 by two fold serial dilution method; type: functional
[12] = test system: Neisseria gonorrhoeae; experiment: Antibacterial activity against Neisseria gonorrhoeae F-18 ATCC 49226 by two fold serial dilution method; type: functional
[13] = Antibacterial activity against Bacillus anthracis Ames NR-3838 by two fold serial dilution method; type: functional, Bacillus anthracis str. Ames
[14] = Antibacterial activity against Francisella tularensis SCHU S4 NR-643 by two fold serial dilution method; type: functional
[15] = Antibacterial activity against Yersinia pestis CO92 NR641 by two fold serial dilution method; type: functional
[16] = test system: Burkholderia pseudomallei; experiment: Antibacterial activity against Burkholderia pseudomallei AHS 1 NCTC 8016 by two fold serial dilution method; type: functional
[17] = test system: Mycobacterium tuberculosis; experiment: Antibacterial activity against Mycobacterium tuberculosis H37Ra ATCC 2517 by two fold serial dilution method; type: functional
[18] = test system: CFPAC-1; experiment: Antiproliferative activity against human CFPAC-1 cells after 72 hrs by Celltiter-Glo luminescent cell viability assay; type: functional, cell-based; conditions: CFPAC-1, 72 h
[19] = test system: MCF7; experiment: Antiproliferative activity against human MCF7 cells after 72 hrs by Celltiter-Glo luminescent cell viability assay; type: functional, cell-based; conditions: MCF7, 72 h
[20] = Antiproliferative activity against human IGROV1 cells after 72 hrs by Celltiter-Glo luminescent cell viability assay; type: functional, cell-based; conditions: IGROV-1, 72 h
[21] = Antiproliferative activity against human COLO205 cells after 72 hrs by Celltiter-Glo luminescent cell viability assay; type: functional, cell-based; conditions: COLO 205, 72 h
[22] = Antiproliferative activity against human DLD1 cells after 72 hrs by Celltiter-Glo luminescent cell viability assay; type: functional, cell-based; conditions: DLD-1, 72 h
[23] = Antiproliferative activity against human UACC62 cells after 72 hrs by Celltiter-Glo luminescent cell viability assay; type: functional, cell-based; conditions: UACC-62, 72 h
[24] = Antiproliferative activity against human MIAPaCa2 cells after 72 hrs by Celltiter-Glo luminescent cell viability assay; type: functional, cell-based; conditions: MIA PaCa-2, 72 h
[25] = test system: A498; experiment: Antiproliferative activity against human A498 cells after 72 hrs by Celltiter-Glo luminescent cell viability assay; type: functional, cell-based; conditions: A498, 72 h
[26] = Antiproliferative activity against human PC3 cells after 72 hrs by Celltiter-Glo luminescent cell viability assay; type: functional, cell-based; conditions: PC-3, 72 h
[27] = test system: A549; experiment: Antiproliferative activity against human A549 cells after 72 hrs by Celltiter-Glo luminescent cell viability assay; type: functional, cell-based; conditions: A549, 72 h
[28] = test system: NCI-H69; experiment: Antiproliferative activity against human NCI-H69 cells after 72 hrs by Celltiter-Glo luminescent cell viability assay; type: functional, cell-based; conditions: NCI-H69, 72 h
[29] = test system: RL; experiment: Antiproliferative activity against human RL cells after 72 hrs by Celltiter-Glo luminescent cell viability assay; type: functional, cell-based
[30] = test system: Klebsiella aerogenes; experiment: Potency index, ratio of Ac-GF-Tic-Oic-GK-Tic-Oic-GF-Tic-Oic-GK-Tic-KKKK-CONH2 MIC to compound MIC for carbapenem-resistant Enterobacter aerogenes NCDC819-56 ATCC 13048; type: functional; conditions: pooled result: one value given for 3 cell lines, strains, targets or settings
[31] = test system: Acinetobacter baumannii; experiment: Potency index, ratio of Ac-GF-Tic-Oic-GK-Tic-Oic-GF-Tic-Oic-GK-Tic-KKKK-CONH2 MIC to compound MIC for Acinetobacter baumannii B5W71 ATCC 15149; type: functional
[32] = test system: Pseudomonas aeruginosa; experiment: Potency index, ratio of Ac-GF-Tic-Oic-GK-Tic-Oic-GF-Tic-Oic-GK-Tic-KKKK-CONH2 MIC to compound MIC for Pseudomonas aeruginosa Boston 41501 ATCC 27853; type: functional

| Structure (SMILES) | MIC [2] | MIC [3] | MIC [4] | MIC [5] | MIC [6] | MIC [7] | MIC [8] | MIC [9] | MIC [10] | MIC [11] | MIC [12] | MIC [13] | MIC [14] | MIC [15] | MIC [16] | MIC [17] | IC50 [18] | IC50 [19] | IC50 [20] | IC50 [21] | also measured |
| --- | --- | --- | --- | --- | --- | --- | --- | --- | --- | --- | --- | --- | --- | --- | --- | --- | --- | --- | --- | --- | --- |
| CC(=O)NCC(=O)N[C@@H](Cc1ccccc1)C(=O)NC1(C(=O)NCC(=O)N2Cc3ccccc3CC2C(=O)N[C@H](CCCCN)C(=O)NC2(C(=O)NCC(=O)N3Cc4ccccc4CC3C(=O)N[C@H](Cc3ccccc3)C(=O)NC3(C(=O)NCC(=O)N4Cc5ccccc5CC4C(=O)NCC(=O)N[C@H](CCCCN)C(=O)N4Cc5ccccc5CC4C(=O)N[C@H](CCCCN)C(=O)N[C@H](CCCCN)C(=O)N[C@H](CCCCN)C(=O)N[C@H](CCCCN)C(N)=O)CCCCC3)CCCCC2)CCCCC1 (stereo not given in full) | > 43 µM | > 45 µM | 5.17 µM (≈ 12.5 µg/mL) | 10.3 µM (≈ 25 µg/mL) | > 43 µM | > 43 µM | > 43 µM | 2.58 µM (≈ 6.24 µg/mL) | > 43 µM | > 43 µM | 41.3 µM (≈ 100 µg/mL) | 10.3 µM (≈ 25 µg/mL) | 20.7 µM (≈ 50 µg/mL) | > 43 µM | > 43 µM | 10.3 µM (≈ 25 µg/mL) | > 7.5 µM | > 7.5 µM | > 7.5 µM | > 7.5 µM | Ratio [1]: 4.3; IC50 [22]: > 7.5 µM; IC50 [23]: > 7.5 µM; IC50 [24]: > 7.5 µM; IC50 [25]: > 7.5 µM; IC50 [26]: > 7.5 µM; IC50 [27]: > 7.5 µM; IC50 [28]: > 7.5 µM; IC50 [29]: 6.8 µM; Ratio [30]: 1.075; Ratio [31]: 17.2; Ratio [32]: 0.2582 |
| CC(=O)NCC(=O)N[C@@H](Cc1ccccc1)C(=O)NC1(C(=O)NCC(=O)NC2(C(=O)N[C@@H](CCCNC(=N)N)C(=O)NC3(C(=O)NCC(=O)NC4(C(=O)N[C@@H](Cc5ccccc5)C(=O)NC5(C(=O)NCC(=O)NC6(C(=O)NCC(=O)N[C@@H](CCCNC(=N)N)C(=O)NC7(C(=O)N[C@@H](CCCNC(=N)N)C(=O)N[C@@H](CCCNC(=N)N)C(=O)N[C@@H](CCCNC(=N)N)C(=O)N[C@@H](CCCNC(=N)N)C(N)=O)CCCCC7)CCCCC6)CCCCC5)CCCCC4)CCCCC3)CCCCC2)CCCCC1 (Ac-GF[Ac6c]G[Ac6c]R[Ac6c]G[Ac6c]F[Ac6c]G[Ac6c]GR[Ac6c]RRRR-NH2) | 2.55 µM (≈ 6.25 µg/mL) | 2.55 µM (≈ 6.25 µg/mL) | 5.09 µM (≈ 12.5 µg/mL) | 2.55 µM (≈ 6.25 µg/mL) | 20.4 µM (≈ 49.9 µg/mL) | 1.28 µM (≈ 3.14 µg/mL) | 5.09 µM (≈ 12.5 µg/mL) | 2.55 µM (≈ 6.25 µg/mL) | 1.28 µM (≈ 3.14 µg/mL) | 10.2 µM (≈ 25 µg/mL) | 2.56 µM (≈ 6.28 µg/mL) | 2.56 µM (≈ 6.28 µg/mL) | 40.8 µM (≈ 99.9 µg/mL) | > 41 µM | > 41 µM | 40.8 µM (≈ 99.9 µg/mL) | 2.6 µM | 7 µM | 6 µM | 6.6 µM | IC50 [22]: 6.4 µM; IC50 [23]: 6.4 µM; IC50 [24]: 5 µM; IC50 [25]: 5.6 µM; IC50 [26]: 7.4 µM; IC50 [27]: 6.4 µM; IC50 [28]: 2 µM; IC50 [29]: 1.1 µM |
